Where “and” joins values, the source holds several entries; their conditions need not be identical. Identical values can stand only once. Like-named read-outs stand apart in the source and are kept apart here.

Series [1] concerns HIV-1NL4-3. The series is described as follows: HIV-1 infectivity assay in TZM-bl reporter cell line (LTR-luciferase, 48 h). In kind it is cell-based. Particulars: Human immunodeficiency virus 1, TZM-bl. Put shortly: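 Read-out is luciferase from an integrated HIV-1 LTR reporter in TZM-bl cells, 48 h after HIV-1NL4-3 infection in the presence of 1 μM compound. Scale set by DMSO-treated wild-type-infected cells (0%) and Nef-defective virus (100% Nef-dependent effect). Cell Titer Blue measures cytotoxicity without virus.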

For series [2], the system named is TZM-bl cell line. It is filed as cell-based. The settings on record: human, 1 μM. The method, boiled down:
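TZM-bl cells (HIV-1 LTR-luciferase) infected with HIV-1NL4-3 with compound at 1 μM; luciferase read 48 h later. Percent inhibition normalized to DMSO wild-type infection (0%) and Nef-defective HIV-1 infection (100% of Nef-dependent effect). Viability in uninfected TZM-bl cells by Cell Titer Blue.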

The target in series [3] is HIV-1 NefNL4-3 (Human immunodeficiency virus type 1 group M subtype B, UniProt P03406, A33V/T15A/T51N/V11I). Nature of the series: Surface plasmon resonance binding to recombinant full-length Nef (NL4-3). The settings on record: for Nef NL4-3 Binding, SPR 1:1 or 2-site fitting KD1: 1:1 Langmuir fit where the KD2 cell says '1 to 1 fitting', else 2-site fit; for RU30/RUNef (extent of binding): response units at 30 μM relative to Nef immobilized on the SPR chip.

[4] abbreviates: 48 h, Table 1, TZM-bl cells, 1 μM, 48 h, 100% = Nef-defective HIV-1, read-out: HIV-1 Infectivity % Inhibition Norm. to Δ-Nef @ 1 μM.
[5] abbreviates: Nef NL4-3 Binding, SPR 1:1 or 2-site fitting KD2, Table 1, 2-site fit, second component.
The mark [6] stands for this setting: Nef NL4-3 Binding, SPR 2-state fitting KD, Table 1, 2-step induced-fit model.
The mark [7] stands for this setting: 1.0 μM, TZM-bl reporter cell line, Table 4, read-out: % Infectivity Inhibition.
[8] abbreviates: KD, M, Table 4, SPR fit 2-step induced fit, KD = koff/kon × koff2/(koff2 + kon2).
Where [9] appears, read: Table 4, 2-step induced fit, T = 1/koff2.
Setting [10] is: read-out: Nef NL4-3 Binding, SPR 1:1 or 2-site fitting KD2, Table 1, 2-site fit, second component.
[11] abbreviates: KD, M, Table 4, SPR fit 1:1 Langmuir, KD = koff/kon.
The mark [12] stands for this setting: Table 4, 1:1 Langmuir fit, T = 1/koff.

As for `Oc1c(CCc2ccc(F)cc2)c(CC2CCN(Cc3cccnc3)CC2)nn1-c1nc2ccccc2[nH]1` [Compound I-808, 1-(1H-1,3-benzodiazol-2-yl)-4-[2-(4-fluorophenyl)ethyl]-3-({1-[(pyridin-3-yl)methyl]piperidin-4-yl}methyl)-1H-pyrazol-5-ol], the inhibition at 1 µM in series [1] (setting [4]) is 12.8%. The “Percent Viability @ 1 μM (TZM-bl cells)” value in series [2] stood at 102.6%. Also, in series [3] (Table 1), the “Nef NL4-3 Binding, SPR 1:1 or 2-site fitting KD1” value (“Nef NL4-3 Binding” for short) was “No Interaction”.
On to `Oc1c(CCc2ccc(F)cc2)c(CN2CCOCC2)nn1-c1nc2ccccc2[nH]1` [Compound I-157, 1-(1H-1,3-benzodiazol-2-yl)-4-[2-(4-fluorophenyl)ethyl]-3-[(morpholin-4-yl)methyl]-1H-pyrazol-5-ol], for which the inhibition at 1 µM in series [1] (setting [4]) was 13.2%. In series [2], the “Percent Viability @ 1 μM (TZM-bl cells)” value is recorded as 100.7%. The Kd in series [3] was 7800 nM.
As to `Oc1c(CCc2ccc(F)cc2)c(C2CCOCC2)nn1-c1nc2ccccc2[nH]1` [Compound I-114, 1-(1H-1,3-benzodiazol-2-yl)-4-[2-(4-fluorophenyl)ethyl]-3-(oxan-4-yl)-1H-pyrazol-5-ol], the inhibition at 1 µM in series [1] (setting [4]) is 78.2%. In series [2], the “Percent Viability @ 1 μM (TZM-bl cells)” value turned out to be 99.5%. For the same compound, the Kd in series [3] is 1770 nM and 1170 nM; in series [3] (setting [5]), 4400 nM; in series [3] (setting [6]), 5560 nM.
On to `CC(=O)N1CCCC(c2nn(-c3nc4ccccc4[nH]3)c(O)c2CCc2ccc(F)cc2)C1` (stereo not drawn) [Compound I-754, 1-{3-[1-(1H-1,3-benzodiazol-2-yl)-4-[2-(4-fluorophenyl)ethyl]-5-hydroxy-1H-pyrazol-3-yl]piperidin-1-yl}ethan-1-one], for which the inhibition at 1 µM in series [1] (setting [7]) and in series [1] (setting [4]) was 37.4% each time. The “% Cell Viability” value in series [2] is 97.2%. For the same compound, in series [2], the “Percent Viability @ 1 μM (TZM-bl cells)” value turned out to be 97.2%. The Kd in series [3] amounted to 477 nM; in series [3] (setting [8]) it was 0.0233 nM; in series [3] (setting [6]), 0.0233 nM; in series [3] (setting [10]) it was 7320 nM. In series [3] (setting [9]), the “T, minutes (residence time)” value came out at 8.05E + 05 minutes. In series [3], the “RU30/RUNef (extent of binding)” value was 5.14E- 03.
For the compound `O=C(c1ccc(F)cc1)N1CCC(CCc2c(C3CC3)nn(-c3nc4cc(Cl)ccc4[nH]3)c2O)CC1` [Compound I-710, 1-(5-chloro-1H-1,3-benzodiazol-2-yl)-3-cyclopropyl-4-{2-[1-(4-fluorobenzoyl)piperidin-4-yl]ethyl}-1H-pyrazol-5-ol], the inhibition at 1 µM in series [1] (setting [7]) and in series [1] (setting [4]) was 2.5% throughout. In addition, the “% Cell Viability” value in series [2] stood at 100%. Also, in series [2], the “Percent Viability @ 1 μM (TZM-bl cells)” value was determined as 106.9%. Moreover, the Kd in series [3] (setting [8]) came out at 2460 nM; in series [3] (setting [6]), 2460 nM; in series [3] (setting [10]), 9780 nM. Further, the “T, minutes (residence time)” value in series [3] (setting [9]) is given as 4.16E + 00 minutes. For the same compound, the “RU30/RUNef (extent of binding)” value in series [3] is on record as 2.12E- 02.
Consider `Oc1c(CC2CCOCC2)c(C2CCOCC2)nn1-c1cc(C(F)(F)F)n[nH]1` [Compound I-621, 3-(oxan-4-yl)-4-[(oxan-4-yl)methyl]-5′-(trifluoromethyl)-2′H-[1,3′-bipyrazol]-5-ol], for which, in series [1] (48 h, Table 2, TZM-bl cells, 1 μM, 48 h, 100% = Nef-defective HIV-1, read-out: HIV-1 Infectivity % Inhibition Norm. to Δ-Nef @ 1 μM), the inhibition at 1 µM was determined as 42.4%. In series [2], the “Percent Viability @ 1 μM (TZM-bl cells)” value is given as 95.3%. The “Nef NL4-3 Binding” value in series [3] (Table 2) was “No interaction”.
For the compound `CC(C)OC(=O)N1CCC(c2nn(-c3nc4ccccc4[nH]3)c(O)c2CC2CCOCC2)CC1` [Compound I-725, propan-2-yl 4-[1-(1H-1,3-benzodiazol-2-yl)-5-hydroxy-4-[(oxan-4-yl)methyl]-1H-pyrazol-3-yl]piperidine-1-carboxylate], the inhibition at 1 µM in series [1] (setting [7]) and in series [1] (setting [4]) was 37.4% in each case. Further, the “% Cell Viability” value in series [2] turned out to be 95.6%. Also, the “Percent Viability @ 1 μM (TZM-bl cells)” value in series [2] amounted to 95.6%. Further, the Kd in series [3] and in series [3] (setting [11]) was 3290 nM each time. For the same compound, the “T, minutes (residence time)” value in series [3] (setting [12]) was 4.73E + 00 minutes. For the same compound, the “RU30/RUNef (extent of binding)” value in series [3] amounted to 3.88E- 03.
Consider `COC(=O)N1CCC(CCc2c(-c3ccc(C(F)(F)F)cn3)nn(-c3nc4cc(Br)ccc4[nH]3)c2O)CC1` [Compound I-708, methyl 4-{2-[1-(5-bromo-1H-1,3-benzodiazol-2-yl)-5-hydroxy-3-[5-(trifluoromethyl)pyridin-2-yl]-1H-pyrazol-4-yl]ethyl}piperidine-1-carboxylate], for which, in series [1] (setting [7]), the inhibition at 1 µM worked out at 100%. Moreover, the inhibition at 1 µM in series [1] (setting [4]) worked out at 117%. Also, in series [2], the “% Cell Viability” value was 77.8% and the “Percent Viability @ 1 μM (TZM-bl cells)” value worked out at 77.8%. In series [3], the Kd came to 1.4 nM and the “RU30/RUNef (extent of binding)” value stood at 2.04E- 03. Moreover, the Kd in series [3] (setting [11]) is 1.4 nM. In addition, in series [3] (setting [12]), the “T, minutes (residence time)” value is listed as 1.00E + 04 minutes.
Take `Oc1c(CCC2CCOCC2)c(-c2cccc(F)c2)nn1-c1nc2ccccc2[nH]1` [Compound I-150, 1-(1H-1,3-benzodiazol-2-yl)-3-(3-fluorophenyl)-4-[2-(oxan-4-yl)ethyl]-1H-pyrazol-5-ol]: the inhibition at 1 µM in series [1] (setting [7]) and in series [1] (setting [4]) was 53.9% in each case. The “% Cell Viability” value in series [2] is reported as 77.7%. Further, the “Percent Viability @ 1 μM (TZM-bl cells)” value in series [2] amounted to 77.7%. The Kd in series [3] (setting [8]) was determined as 1070 nM; in series [3] (setting [5]), 10400 nM; in series [3] (setting [6]), 1070 nM. In series [3] (setting [9]), the “T, minutes (residence time)” value came to 9.69E + 00 minutes. The “RU30/RUNef (extent of binding)” value in series [3] worked out at 4.75E- 03.
Regarding `Oc1c(CCc2ccc(F)cc2)c(CC2CCCNC2)nn1-c1nc2ccccc2[nH]1` (stereo not drawn) [Compound I-556, 1-(1H-1,3-benzodiazol-2-yl)-4-[2-(4-fluorophenyl)ethyl]-3-[(piperidin-3-yl)methyl]-1H-pyrazol-5-ol], in series [1] (setting [4]), the inhibition at 1 µM amounted to 18.1%. In series [2], the “Percent Viability @ 1 μM (TZM-bl cells)” value is listed as 86.1%. The Kd in series [3] was found to be 783 nM.
`CC(C)(C)OC(=O)N1CCC(CCc2c(C3CC3)nn(-c3nc4cc(Cl)ccc4[nH]3)c2O)CC1` [Compound I-218, tert-butyl 4-{2-[1-(5-chloro-1H-1,3-benzodiazol-2-yl)-3-cyclopropyl-5-hydroxy-1H-pyrazol-4-yl]ethyl}piperidine-1-carboxylate]: the inhibition at 1 µM in series [1] (setting [7]) was 0%; in series [1] (setting [4]) it was -7%. Further, the “% Cell Viability” value in series [2] is on record as 97.9%. In series [2], the “Percent Viability @ 1 μM (TZM-bl cells)” value stood at 97.9%. The figures for the Kd in series [3], in series [3] (setting [8]) and in series [3] (setting [6]) were 1120 nM, 692 nM and 692 nM, respectively. Also, the “T, minutes (residence time)” value in series [3] (setting [9]) turned out to be 1.02E + 01 minutes. For the same compound, the “RU30/RUNef (extent of binding)” value in series [3] is listed as 1.32E- 02.
On to `O=C(OCc1ccccc1)N1CCC(c2nn(-c3nc4ccccc4[nH]3)c(O)c2CCc2ccc(F)cc2)CC1` [Compound I-158, benzyl 4-[1-(1H-1,3-benzodiazol-2-yl)-4-[2-(4-fluorophenyl)ethyl]-5-hydroxy-1H-pyrazol-3-yl]piperidine-1-carboxylate], for which the inhibition at 1 µM in series [1] (setting [4]) amounted to 101%. Moreover, the “Percent Viability @ 1 μM (TZM-bl cells)” value in series [2] is listed as 92.0%. Also, the “Nef NL4-3 Binding” value in series [3] (Table 1) is “No Interaction”.
Consider `Oc1c(CC2CCOCC2)c(-c2ccc(F)c(F)c2)nn1-c1nc2ccccc2[nH]1` [Compound I-185, 1-(1H-1,3-benzodiazol-2-yl)-3-(3,4-difluorophenyl)-4-[(oxan-4-yl)methyl]-1H-pyrazol-5-ol], for which, in series [1] (setting [7]), the inhibition at 1 µM amounted to 100%. Also, in series [2], the “% Cell Viability” value is on record as 95.1%. Moreover, in series [3] (setting [8]), the Kd amounted to 3400 nM. In addition, in series [3] (setting [9]), the “T, minutes (residence time)” value is reported as 1.04E + 01 minutes. Further, the “RU30/RUNef (extent of binding)” value in series [3] turned out to be 4.57E- 03.

The record behind these values is patent publication US20220380341A1, “INHIBITORS OF HIV-1 NEF FOR THE TREATMENT OF HIV DISEASE” (priority 2018, published 2022).
